Test [1] deals with IRK1 potassium inward rectifier channel (Rattus norvegicus, UniProt Q64273).
The next test concerns HL5 cells. Type of test: cell-based.
For test [2], the system named is voltage-activated chloride and potassium channels of wild-type HEK-293 cells.

Sequence of IRK1 potassium inward rectifier channel (Q64273 whole entry): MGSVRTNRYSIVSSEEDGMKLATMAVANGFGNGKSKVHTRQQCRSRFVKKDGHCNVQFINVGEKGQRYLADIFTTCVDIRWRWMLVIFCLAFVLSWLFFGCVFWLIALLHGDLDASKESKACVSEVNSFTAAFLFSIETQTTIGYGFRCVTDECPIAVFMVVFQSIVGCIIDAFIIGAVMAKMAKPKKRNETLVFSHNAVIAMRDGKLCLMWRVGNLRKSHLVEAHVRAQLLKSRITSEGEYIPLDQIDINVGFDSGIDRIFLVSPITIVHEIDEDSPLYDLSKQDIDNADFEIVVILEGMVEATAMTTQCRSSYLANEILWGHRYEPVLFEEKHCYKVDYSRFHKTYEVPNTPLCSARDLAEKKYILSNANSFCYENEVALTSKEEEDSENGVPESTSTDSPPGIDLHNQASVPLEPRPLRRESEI

On to `[Ba+2].[Cl-].[Cl-]` [barium chloride], for which the “voltage change during stimulation with block” value in test [1] is reported as “no detectable voltage change during stimulation until the field reaches 80 V/cm”.
For `NC1=N[C@H](O)[C@H]2[C@H]3O[C@]4(O)O[C@@H]([C@@H](O)[C@@]2(N1)[C@@H]4O)[C@]3(O)CO` [TTX, tetrodotoxin], the “effect on the sustained signal” value with HL5 cells is “unaffected”.
As for `CC[N+](CC)(CC)CC` [TEA, Tetraethylammonium], the “block of the negative voltage response” value in test [2] is recorded as “partially blocks the response”.

Source of the values: patent US8071318B2, “High throughput method and system for screening candidate compounds for activity against target ion channels” (Vertex Pharmaceuticals (San Diego) LLC, priority 2000, dated 2011).
